Assay results published in patent US20120071533A1, “ANTI-FUNGAL FORMULATION” (priority 2009, published 2012).
Values joined by “and” are separate entries in the source; they are usually repeats but may differ in a detail not shown here. Equal values may be shown once. Marks after values point to notes of the source that are not given here.

Assays:
genus Candida = assay: In vitro antifungal activity (MIC) against the genus Candida; type: cell-based
Experimental: (§1) The antifungal activities of luliconazole, the Z form of luliconazole, and the SE form of luliconazole were determined. The compounds were tested against the genus Trichophyton and the genus Candida. The MICs against Trichophyton were 15-250 times higher for the Z form and 120-1000 times higher for the S-E form than for luliconazole. The MICs against the genus Candida were 4-500 times higher for the Z form and 8-1000 times higher for the S-E form than for luliconazole.

genus Trichophyton = assay: In vitro antifungal activity (MIC) against the genus Trichophyton; type: cell-based
Experimental: as §1

[1] = Solubility of luliconazole in solvents and model formulations by UV spectrophotometer at 296 nm, 4° C. and RT (21.5° C., ±1.5); type: physicochemical
Experimental: (§2) Typically, luliconazole was weighed into a screw-cap glass vial, the desired solvent was added and the vial was tightly closed. The vials containing suspension were sonicated in an ultra-sonicator bath at 40° C. for 20-30 seconds; the vials were taken out of the bath and swirled to mix the contents. The sonication and swirling steps were repeated 3-4 times till most of the luliconazole was dissolved. […] The samples were stored at RT (21.5° C.,±1.5) and at 4° C. in tightly closed screw-cap glass vials. Sample preparation was conducted in a dark room under yellow light and samples were protected from light during storage.
Solubility was determined after 24 hours and again after 3 days at respective storage conditions (RT and 4° C.) using a UV spectrophotometer (Pharma Spec 1700; Shimadzu). Samples for quantitative determination of solubility were drawn from the supernatant area of the suspension (solution) into a 3 ml syringe with a 0.1 μm (pore size) syringe filter (nylon, 13 mm) attached. The desired amount of solution was delivered into a 100 ml volumetric flask that was immediately closed tightly with a stopper and weighed accurately to determine the exact weight of the solution. As ethyl acetate is incompatible with the plastic in the syringe and the housing of the syringe-filter, the ethyl acetate solution was centrifuged at 4200 rpm for 5 minutes and the supernatant solution was drawn for analysis using a glass Pasteur pipette.
The samples taken in volumetric flasks were diluted with methanol to the mark and diluted further before analyzing on the UV spectrophotometer. A five point standard curve of luliconazole (at 20, 10, 6, 4 and 2 μg/ml) in methanol was determined by reading the absorbance at 296 nm. The samples were also read at 296 nm and the concentration of luliconazole was determined from the equation of the standard curve. The solubility of luliconazole in respective solvents and model formulations was then determined as % wt/wt.
Solubility was calculated as % wt/wt from the UV spectrophotometric data read at 296 nm.

[2] = test system: Trichophyton rubrum, Trichophyton mentagrophytes and Trichophyton tonsurans; conditions: versus terbinafine, liranaftate, butenafine, amorolfine, ketoconazole, clotrimazole, neticonazole, miconazole, bifonazole; cited from earlier work
[3] = Visual observations of luliconazole solubility samples (crystals / clear solution); type: physicochemical; conditions: for concentration at which luliconazole was completely soluble (visual observations): pilot studies
Experimental: as §2

[4] = cited from earlier work
onychomycosis = onychomycosis of the toenail; package insert; cited from earlier work
[5] = in Acetone (theoretical 18%; #853-38-14)
[6] = in Benzyl alcohol (theoretical 40%; #853-38-13)
[7] = in Ethanol (theoretical 3.5%; #853-38-15)
[8] = in Ethyl acetate (theoretical 6.5%; #853-38-12)
[9] = in Transcutol P (theoretical 15%; #853-38-17)

For `N#C/C(=C1/SC[C@@H](c2ccc(Cl)cc2Cl)S1)n1ccnc1` [luliconazole, (−)-(E)-[(4R)-(2,4-dichlorophenyl)-1,3-dithiolan-2-ylidene](1H-imidazol-1-yl)acetonitrile], the “MIC Range” value (genus Candida; C. albicans (6 strains)) was 30 to 250 ng/mL, the “MIC Range” value (genus Candida; C. glabrata (5 strains)) was “≦0.0080-0.030 μg/mL” and the “MIC Range” value (genus Trichophyton; T. mentagrophytes (4 strains)) was 1 to 2 ng/mL. The “MIC Range” value (genus Trichophyton; T. rubrum (4 strains)) was 0.24 to 0.5 ng/mL, the “Solubility wt/wt % 4° C. 24 hr” value [1, 5] was 13.1 % wt/wt and the “Solubility wt/wt % 4° C. 3 days” value [1, 5] was 12 % wt/wt and 12.49 % wt/wt. For the same compound, the “Solubility wt/wt % RT 24 hr” value ([1]; in Acetone (theoretical 18%; #853-38-14), average duplicate sample preparations) was 17.67* % wt/wt, the “Solubility wt/wt % RT 3 days” value ([1]; in Benzyl alcohol (50%; saturated solution; #802-24-01)) was 43 % wt/wt and 43.44 % wt/wt and the “Solubility wt/wt % 4° C. 24 hr” value [1, 6] was 39.87 % wt/wt. The “Solubility wt/wt % 4° C. 3 days” value [1, 6] was 40 % wt/wt and 39.18 % wt/wt, the “Solubility wt/wt % RT 24 hr” value [1, 6] was 40.19 % wt/wt and the “Solubility wt/wt % RT 3 days” value ([1]; in Benzyl alcohol (theoretical 40%; #853-38-13), average duplicate sample preparations) was 40 % wt/wt and 39.91* % wt/wt. The “Solubility wt/wt % 4° C. 24 hr” value [1, 7] was 2.67 % wt/wt, the “Solubility wt/wt % 4° C. 3 days” value [1, 7] was 2.3 % wt/wt and the “Solubility wt/wt % RT 24 hr” value [1, 7] was 3.51 % wt/wt. The “Solubility wt/wt % 4° C. 24 hr” value [1, 8] was 6.14 % wt/wt, the “Solubility wt/wt % RT 24 hr” value ([1]; in Ethyl acetate (theoretical 6.5%; #853-38-12), average duplicate sample preparations) was 6.58* % wt/wt and the “Solubility wt/wt % RT 24 hr” value ([1]; in Isopropyl myristate (theoretical 5%; #853-38-10)) was 0.4 % wt/wt and 0.41 % wt/wt. For the same compound, the “Solubility wt/wt % RT 24 hr” value ([1]; in Propylene carbonate (theoretical 10%; #853-38-11)) was 8.98 % wt/wt, the “Solubility wt/wt % 4° C. 3 days” value [1, 9] was 14.78 % wt/wt and the “Solubility wt/wt % RT 24 hr” value [1, 9] was 15.12 % wt/wt. For the same compound, the “Solubility wt/wt % RT 3 days” value [1, 9] was 14.89 % wt/wt, the “potency compared with reference drugs” value [2] was “greater potency” and the “visual observations at 3 days/4° C.” value [3, 6] was “clear solution”. The “visual observations at 3 days/RT” value [3, 6] was “clear solution”, the “visual observations at 3 days/RT” value [3, 7] was “clear solution” and the “visual observations at 3 days/4° C.” value [3, 8] was “clear solution”. The “visual observations at 3 days/RT” value [3, 8] was “clear solution”, the “visual observations at 3 days/4° C.” value [3, 9] was “clear solution” and the “visual observations at 3 days/RT” value [3, 9] was “clear solution”. For the same compound, the “concentration at which luliconazole was completely soluble (visual observations)” value ([3]; in Transcutol P) was ~15%, the “concentration at which luliconazole was completely soluble (visual observations)” value ([3]; in benzyl alcohol) was ~40% and the solubility in water [4] was “practically insoluble in water”.

In the case of `CN(C/C=C/C#CC(C)(C)C)Cc1cccc2ccccc12` [terbinafine], the “patients with both mycological cure and clinical cure” value (onychomycosis) is listed as 38%.
